#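 A five-concentration, 48-hour dose response in 96-well plates underlies each endpoint, interpolated linearly between surrounding concentrations. At the GI50, growth is halved. TGI: concentration producing complete growth inhibition.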
# Columns and labels:
# Assay in all cases: DTP human tumour cell line panel, 48 h
# NCI-H226 lung = test system: NCI-H226 lung
# NCI-H23 lung = test system: NCI-H23 lung
# NCI-H460 lung = test system: NCI-H460 lung
# NCI-H522 lung = test system: NCI-H522 lung
# NCI/ADR-RES ovarian = test system: NCI/ADR-RES ovarian
# OVCAR-3 ovarian = test system: OVCAR-3 ovarian
# OVCAR-4 ovarian = test system: OVCAR-4 ovarian
# OVCAR-5 ovarian = test system: OVCAR-5 ovarian
# OVCAR-8 ovarian = test system: OVCAR-8 ovarian
# PC-3 prostate = test system: PC-3 prostate
# RPMI-8226 leukemia = test system: RPMI-8226 leukemia
# RXF 393 renal = test system: RXF 393 renal
# SF-268 CNS = test system: SF-268 CNS
# SF-295 CNS = test system: SF-295 CNS
# SF-539 CNS = test system: SF-539 CNS
# SK-MEL-2 melanoma = test system: SK-MEL-2 melanoma
# SK-MEL-28 melanoma = test system: SK-MEL-28 melanoma
# SK-MEL-5 melanoma = test system: SK-MEL-5 melanoma
# SK-OV-3 ovarian = test system: SK-OV-3 ovarian
# SN12C renal = test system: SN12C renal
# SNB-19 CNS = test system: SNB-19 CNS
# SNB-75 CNS = test system: SNB-75 CNS
# SR leukemia = test system: SR leukemia
# SW-620 colon = test system: SW-620 colon
# T-47D breast = test system: T-47D breast
# TK-10 renal = test system: TK-10 renal
# U251 CNS = test system: U251 CNS
# UACC-257 melanoma = test system: UACC-257 melanoma
# UACC-62 melanoma = test system: UACC-62 melanoma
# UO-31 renal = test system: UO-31 renal
smiles,measurement,setting,value
COc1cc2c(F)nccc2cc1C(=O)N[C@@H](c1ccc(F)c(Cl)c1)[C@@H]1C[C@@H](O)CN1,TGI,NCI-H226 lung,24.4 µM
same,GI50,NCI-H23 lung,11.1 µM
same,TGI,NCI-H23 lung,26 µM
same,GI50,NCI-H460 lung,0.623 µM
same,TGI,NCI-H460 lung,15.8 µM
same,GI50,NCI-H522 lung,12 µM
same,TGI,NCI-H522 lung,26.7 µM
same,GI50,NCI/ADR-RES ovarian,14 µM
same,TGI,NCI/ADR-RES ovarian,47 µM
same,GI50,OVCAR-3 ovarian,8.43 µM
same,TGI,OVCAR-3 ovarian,24.7 µM
same,GI50,OVCAR-4 ovarian,8.59 µM
same,TGI,OVCAR-4 ovarian,24.6 µM
same,GI50,OVCAR-5 ovarian,13.1 µM
same,TGI,OVCAR-5 ovarian,45.6 µM
same,GI50,OVCAR-8 ovarian,13.2 µM
same,TGI,OVCAR-8 ovarian,28.9 µM
same,GI50,PC-3 prostate,0.54 µM
same,TGI,PC-3 prostate,> 43.3 µM
same,GI50,RPMI-8226 leukemia,7.72 µM
same,TGI,RPMI-8226 leukemia,40.1 µM
same,GI50,RXF 393 renal,0.0362 µM
same,TGI,RXF 393 renal,0.268 µM
same,GI50,SF-268 CNS,3.64 µM
same,TGI,SF-268 CNS,21.6 µM
same,GI50,SF-295 CNS,0.131 µM
same,TGI,SF-295 CNS,13.2 µM
same,GI50,SF-539 CNS,0.0677 µM
same,TGI,SF-539 CNS,11.1 µM
same,GI50,SK-MEL-2 melanoma,11.4 µM
same,TGI,SK-MEL-2 melanoma,25.2 µM
same,GI50,SK-MEL-28 melanoma,4.48 µM
same,TGI,SK-MEL-28 melanoma,20.2 µM
same,GI50,SK-MEL-5 melanoma,14.7 µM
same,TGI,SK-MEL-5 melanoma,28.1 µM
same,GI50,SK-OV-3 ovarian,0.268 µM
same,TGI,SK-OV-3 ovarian,13.7 µM
same,GI50,SN12C renal,8.08 µM
same,TGI,SN12C renal,22.2 µM
same,GI50,SNB-19 CNS,0.847 µM
same,TGI,SNB-19 CNS,18.5 µM
same,GI50,SNB-75 CNS,0.074 µM
same,TGI,SNB-75 CNS,1.51 µM
same,TGI,SR leukemia,> 41.9 µM
same,GI50,SW-620 colon,6.39 µM
same,TGI,SW-620 colon,23.6 µM
same,GI50,T-47D breast,0.0552 µM
same,TGI,T-47D breast,21.3 µM
same,GI50,TK-10 renal,0.279 µM
same,TGI,TK-10 renal,14.1 µM
same,GI50,U251 CNS,1.49 µM
same,TGI,U251 CNS,17.8 µM
same,GI50,UACC-257 melanoma,1.33 µM
same,TGI,UACC-257 melanoma,19.6 µM
same,GI50,UACC-62 melanoma,0.514 µM
same,TGI,UACC-62 melanoma,16.9 µM
same,GI50,UO-31 renal,0.491 µM
same,TGI,UO-31 renal,15.4 µM

# From PubChem BioAssay (NCI)
